Key:
[1] = tested on: post-menopausal women; assay: Adverse Events (AEs, TEAEs); type: in vivo
From the text: This is confirmed by the following statistical analysis. Using a Poisson regression model with a random effect for the patient and treatment group as a covariate to model the count of TEAEs in the different treatment groups, it can be shown that there is no statistical difference between the treatment groups (p value of 0.099). Second, a chi-square test was used to assess if the prevalence of patients reporting TEAEs in each treatment group was similar. No statistical difference was found between the treatment groups (p value of 0.575).

[2] = tested on: post-menopausal women; assay: Number of patients with biopsies (endometrial biopsy); type: in vivo
Procedure: If during the course of the trial, a double layer endometrial thickness ≥15 mm was detected on TVUS and/or abnormal uterine bleeding (in the judgement of the gynecologist in light of the oestrogen therapy) was reported by a non-hysterectomised person, they underwent an endometrial biopsy and was treated with progestin (10 mg dydrogesterone) QD until end of Week 11 in a sequential way (i.e., a 14 day progestin treatment period followed by a 14 day progestin treatment pause) in addition to the E4/placebo treatment. […] If an abnormal uterine bleeding occurred again after a first normal endometrial biopsy, a thorough gynaecological examination and a TVUS were performed. If necessary in the judgment of the gynecologist, a second endometrial biopsy was performed. After the E4/Placebo treatment period, all non-hysterectomised subjects (including those having received the progestin previously) received progestin therapy for 14 days with 10 mg dydrogesterone QD.
1. Number of patients with biopsies

## C[C@]12CC[C@@H]3c4ccc(O)cc4CC[C@H]3[C@@H]1[C@@H](O)[C@@H](O)[C@@H]2O [E4, 1,3,5 (10)-estratrien-3,15alpha,16alpha,17beta-tetrol]
[1]; 2.5 mg
  Count of Treatment Emergent AEs (TEAEs): 61
  Percentage of patients with TEAE leading to Study Discontinuation: 1.9%
  Percentage of patients with severe TEAE: 7.7%
[1]; 5 mg
  Count of Treatment Emergent AEs (TEAEs): 63
  Percentage of patients with TEAE leading to Study Discontinuation: 6.4%
  Percentage of patients with severe TEAE: 10.6%
[1]; 10 mg
  Count of Treatment Emergent AEs (TEAEs): 95
  Percentage of patients with TEAE leading to Study Discontinuation: 5.6%
  Percentage of patients with severe TEAE: 7.4%
[1]; 10 mg group
  Average AEs per patient, in patients who had AEs: 3.2
[1]; 15 mg
  Count of Treatment Emergent AEs (TEAEs): 82
  Percentage of patients with TEAE leading to Study Discontinuation: 4.1%
  Percentage of patients with severe TEAE: 6.1%
[1]; 15 mg group
  Average AEs per patient, in patients who had AEs: 2.6
  TEAEs compared with the 10 mg group: less TEAEs than patients in the 10 mg group
[2]; 2.5 mg
  Number of patients with biopsies: 4
[2]; 5 mg
  Number of patients with biopsies: 5
[2]; 10 mg
  Number of patients with biopsies: 11
[2]; 15 mg
  Number of patients with biopsies: 9
[2]; 15 mg per day group
  Requirements for biopsies compared with the 10 mg per day group: less requirements for biopsies

Reference: patent US11484539B2, “Compounds and their uses for alleviating menopause-associated symptoms” (Estetra SPRL, priority 2018, dated 2022)
